Measured values published in patent publication US20040034222A1, “2,4 diamino-1,3,5-triazines, processes for their preparation and their use as herbicides and plant growth regulators” (priority 1999, published 2004).

Key:
Type in all cases: in vivo
[1] = test system: harmful plants which are typical for rice crops, for example Cyperus iria and Echinochloa crus-galli; experiment: Action on harmful plants in rice (paddy rice conditions); conditions: applied into the dammed water, different dosages, scored about three weeks after application
From the text: Transplanted and sown rice and also typical rice weeds (gramineous and broad-leaved) are cultivated in closed plastic pots in a greenhouse to the three-leaf stage (Echinochloa crus-galli 1.5-leaf) under paddy rice conditions (dammed height of water: 2-3 cm). This is followed by treatment with the novel compounds. For this purpose, the formulated active compounds are suspended, dissolved or emulsified in water and applied by pouring them into the dammed water around the test plants in different dosages. After this treatment, the test plants are set up in a greenhouse under optimum growth conditions and are maintained in this way throughout the test period.
About three weeks after application, evaluation is made by visual scoring of the damage to the plants by comparison with untreated controls.

[2] = test system: Stellaria media, Lolium multiflorum, Amaranthus retroflexus, Sinapis arvensis, Avena fatua und Setaria viridis; experiment: Post-emergence effect on weeds (greenhouse pot test); conditions: application rate of 1 kg and less of active substance per hectare; treated at three-leaf stage; scored after about 3 to 4 weeks by comparison with untreated controls
Experimental: Seeds or rhizome pieces of monocotyledonous and dicotyledonous weeds were placed in sandy loam soil in plastic pots, covered with soil and grown in a greenhouse under good growth conditions. Three weeks after sowing, the test plants were treated at the three-leaf stage. The compounds according to the invention which were formulated as wettable powders or emulsion concentrates were sprayed, at various dosages, onto the, green parts of the plants at an application rate of 600 to 800 l of water/ha (converted). After the test plants had remained in the greenhouse for about 3 to 4 weeks under optimum growth conditions, the effect of the preparations was scored visually by comparison with untreated controls. The agents according to the invention also have good herbicidal activity post-emergence against a broad spectrum of economically important weed grasses and broad-leafed weeds.

[3] = test system: Stellaria media, Lolium multiflorum, Amaranthus retroflexus, Sinapis arvensis, Avena fatua and Setaria viridis; experiment: Pre-emergence effect on weeds (greenhouse pot test); conditions: application rate of 1 kg and less of active substance per hectare; scored after 3 to 4 weeks by comparison with untreated controls
From the text: Seeds or rhizome pieces of monocotyledonous and dicotyledonous weed plants are placed in sandy loam soil in plastic pots and covered with soil. The compounds according to the invention which are formulated in the form of wettable powders or emulsion concentrates were then applied to the surface of the soil cover in the form of aqueous suspensions or emulsions at an application rate of 600 to 800 l of water/ha (converted), in various dosages.
After the treatment, the pots are placed in a greenhouse and kept under good growth conditions for the weeds. After the test plants had emerged, the damage to the plants or the negative effect on the emergence was scored visually after a test period of 3 to 4 weeks by comparison with untreated controls. As shown by the test results, compounds according to the invention have good herbicidal pre-emergence activity against a broad spectrum of weed grasses and broad-leafed weeds.

Cc1cccc(OCC(Nc2nc(N)nc(C(F)(F)C(F)F)n2)C2CCCC2)c1 (racemic) [Example 110, 2-Amino-4-(1,1,2,2-tetrafluoroethyl)6-{N-[1-cyclopentyl-2-(3-methylphenoxy)ethyl]amino}-1,3,5-triazine]
very good herbicidal activity: herbicidal activity against harmful plants typical for rice crops (visual scoring of damage) [1] | herbicidal activity post-emergence (scored visually) [2] | herbicidal activity pre-emergence (damage to the plants or negative effect on emergence, scored visually) [3]

CC(C)(F)c1nc(N)nc(NC(COc2ccccc2)C2CCC2)n1 (racemic) [Example 178, 2-Amino4-(1-fluoro-1-methylethyl)-6-[N-(1-cyclobutyl-2-phenoxyethyl)-amino]-1,3,5-triazine]
very good herbicidal activity: herbicidal activity against harmful plants typical for rice crops (visual scoring of damage) [1] | herbicidal activity post-emergence (scored visually) [2] | herbicidal activity pre-emergence (damage to the plants or negative effect on emergence, scored visually) [3]
